Results as given in patent publication US9822155B2 (priority 2013, dated 2017).
Converted amounts (≈) assume the structure as drawn. Read-outs that look alike come from different tables or passages of the source. Peptide text beside a SMILES is read from it.

What was measured:
influenza A virus (H1N1) = format: cell-based, influenza A virus A/Hong Kong/415742Md/2009 (H1N1)
in vitro = settings: dog, MDCK cells
[1] = test system: A/Hong Kong/415742Md/2009 (H1N1); format: in vivo

SMILES | antiviral effectiveness in low-salt PB compared with high-salt MEM (influenza A virus (H1N1)) | CC50 at 24 h (in vitro) | viability at 24 h, 7.8 µg/mL (in vitro) | viability at 24 h, 15.6 µg/mL (in vitro) | viability at 24 h, 31.25 µg/mL (in vitro) | viability at 24 h, 62.5 µg/mL (in vitro) | viability at 24 h, 125 µg/mL (in vitro) | viability at 24 h, 250 µg/mL (in vitro) | TC50 (50% toxic concentration) (MDCK cells) | also measured
CC[C@H](C)[C@H](NC(=O)[C@H](C)NC(=O)CNC(=O)[C@@H](N)CC(N)=O)C(=O)N[C@@H](CS)C(=O)N[C@@H](Cc1c[nH]c2ccccc12)C(=O)NCC(=O)N1CCC[C@H]1C(=O)N[C@@H](CS)C(=O)N1CCC[C@H]1C(=O)N[C@H](C(=O)N[C@@H](C)C(=O)N[C@@H](Cc1ccccc1)C(=O)N[C@@H](CCCNC(=N)N)C(=O)N[C@@H](CCC(N)=O)C(=O)N[C@H](C(=O)NCC(=O)N[C@@H](CC(N)=O)C(=O)N[C@@H](CS)C(=O)NCC(=O)N[C@@H](Cc1c[nH]cn1)C(=O)N[C@@H](Cc1ccccc1)C(=O)N[C@@H](CCCCN)C(=O)N[C@H](C(=O)N[C@@H](CCCNC(=N)N)C(=O)N[C@@H](CS)C(=O)N[C@@H](CS)C(=O)N[C@@H](CCCCN)C(=O)N[C@H](C(=O)N[C@@H](CCCNC(=N)N)C(=O)O)[C@@H](C)CC)C(C)C)[C@@H](C)CC)[C@@H](C)O [Peptide P9] (H-NGAICWGPCPTAFRQIGNCGHFKVRCCKIR-OH) | more effective in low-salt phosphate buffer (PB) than in high-salt minimum essential medium (MEM) | 860 µg/mL (≈ 258 µM) | 102% | 95.9% | 108% | 96% | 94.7% | 95.3% | 860 µg/mL (≈ 258 µM) | antiviral effect (infection ratio by plaque assay) (influenza A virus (H1N1)): highest antiviral effect; viability at 24 h, 500 µg/mL (in vitro): 83.4%; viability at 24 h, 750 µg/mL (in vitro): 59.8%; viability at 24 h, 1000 µg/mL (in vitro): 38.7%; binding of P9 to cells (H1N1 virus): no P9 (SEQ ID NO: 10) was detected on the cell membrane or inside the cells; binding of P9 to virus particles (H1N1 virus): bound to the green-labeled virus particles; virus binding to the cell membrane (H1N1 virus): could not block the virus binding to the cell membrane; virus entry into cells by endocytosis (H1N1 virus): did not affect the virus entry into cells by endocytosis; endosomal acidification (red fluorescence of pHrodo Red dextran) (endosomal acidification): no red fluorescence in color image was observed; viral loads in lung tissues (RNA copies by RT-PCR, titers by plaque assay) ([1]; pretreated and i.n. or i.p. treated mice, day 5 after challenge, versus untreated): significantly lower than those of the untreated mice; alveolar damage and interstitial inflammatory infiltration in lung (H&E) ([1]; pretreated or treated mice versus rmBD4 and untreated mice): much less severe; survival rate ([1]; prophylactic, i.n. 50 μg/mouse before challenge with 5 LD50 H1N1, 9 mice/group, 21 days): 100%; survival rate ([1]; therapeutic, i.n. 3 doses 50 μg/dose/day starting 4 hours after lethal challenge): 67%; survival rate ([1]; therapeutic, i.p. 6 doses 200 μg/dose/day starting 4 hours post-challenge): 22%; survival rate ([1]; therapeutic, i.p. 6 doses 400 μg/dose/day starting 4 hours post-challenge): 56%
CC[C@H](C)[C@H](N)C(=O)N[C@H](C(=O)N[C@@H](CC(N)=O)C(=O)N[C@@H](CC(N)=O)C(=O)N1CCC[C@H]1C(=O)N[C@H](C(=O)N[C@H](C(=O)N[C@@H](CS)C(=O)N[C@@H](CCSC)C(=O)N[C@H](C(=O)N[C@@H](CC(N)=O)C(=O)NCC(=O)N[C@@H](C)C(=O)N[C@H](C(=O)N[C@@H](CS)C(=O)N[C@@H](Cc1c[nH]c2ccccc12)C(=O)NCC(=O)N1CCC[C@H]1C(=O)N[C@@H](CS)C(=O)N1CCC[C@H]1C(=O)N[C@H](C(=O)N[C@@H](C)C(=O)N[C@@H](Cc1ccccc1)C(=O)N[C@@H](CCCNC(=N)N)C(=O)N[C@@H](CCC(N)=O)C(=O)N[C@H](C(=O)NCC(=O)N[C@@H](CC(N)=O)C(=O)N[C@@H](CS)C(=O)NCC(=O)N[C@@H](Cc1c[nH]cn1)C(=O)N[C@@H](Cc1ccccc1)C(=O)N[C@@H](CCCCN)C(=O)N[C@H](C(=O)N[C@@H](CCCNC(=N)N)C(=O)N[C@@H](CS)C(=O)N[C@@H](CS)C(=O)N[C@@H](CCCCN)C(=O)N[C@H](C(=O)N[C@@H](CCCNC(=N)N)C(=O)O)[C@@H](C)CC)C(C)C)[C@@H](C)CC)[C@@H](C)O)[C@@H](C)CC)[C@@H](C)O)[C@@H](C)O)[C@@H](C)CC)[C@@H](C)CC [smBD4, reference compound] | more effective in low-salt phosphate buffer (PB) than in high-salt minimum essential medium (MEM) | 94 µg/mL (≈ 21.2 µM) | 93.7% | 85.3% | 71.9% | 60% | 45.5% | 36.5% | 94 µg/mL (≈ 21.2 µM) | 
